ChEMBL document CHEMBL1140323, “Biaryl ureas as potent and orally efficacious melanin concentrating hormone receptor 1 antagonists for the treatment of obesity” (J Med Chem, 2005)
pKi: −log10 of the molar value.

Assays:
[1] = target: T1, Melanin-concentrating hormone receptor 1 (Homo sapiens, UniProt Q99705); experiment: Inhibition of human melanin concentrating hormone receptor 1
[2] = Area under curve(0-6 h) for the compound administered orally at 10 mg/kg in rat; assay type: ADME, organism-based; parameters: time < 6 hr, dose 10 mg/kg, route oral; details: in vivo, po
[3] = target: Sodium-dependent serotonin transporter (Rattus norvegicus, UniProt P31652); experiment: Inhibition of 5-hydroxytryptamine reuptake by serotonin transporter
[4] = target: T1, Melanin-concentrating hormone receptor 1; experiment: Inhibition of calcium influx into cells expressing hMCH-R1 in FLIPR assay; assay type: functional
Rattus norvegicus [5] = experiment: Ability (10 mg/kg) required to produce a dose dependent decrease in food intake; assay type: functional
Mus musculus [6] = experiment: Oral administration (30 mg/kg) required to reduced food intake relative to control at 24 hr post dose; assay type: functional
Rattus norvegicus [7] = experiment: Ability (3 mg/kg) required to suppression the body weight gain relative to control; assay type: functional
Mus musculus [8] = experiment: Oral administration (30 mg/kg) required to reduced food intake relative to control at 4 hr post dose; assay type: functional
Rattus norvegicus [9] = experiment: Ability (3 mg/kg) required to produce a dose dependent decrease in food intake; assay type: functional
Rattus norvegicus [10] = experiment: Ability (10 mg/kg) required to suppression the body weight gain relative to control; assay type: functional
Mus musculus [11] = experiment: Oral administration (30 mg/kg) required to reduced food intake relative to control at 6 hr post dose; assay type: functional

T1 sequence (Q99705 whole entry): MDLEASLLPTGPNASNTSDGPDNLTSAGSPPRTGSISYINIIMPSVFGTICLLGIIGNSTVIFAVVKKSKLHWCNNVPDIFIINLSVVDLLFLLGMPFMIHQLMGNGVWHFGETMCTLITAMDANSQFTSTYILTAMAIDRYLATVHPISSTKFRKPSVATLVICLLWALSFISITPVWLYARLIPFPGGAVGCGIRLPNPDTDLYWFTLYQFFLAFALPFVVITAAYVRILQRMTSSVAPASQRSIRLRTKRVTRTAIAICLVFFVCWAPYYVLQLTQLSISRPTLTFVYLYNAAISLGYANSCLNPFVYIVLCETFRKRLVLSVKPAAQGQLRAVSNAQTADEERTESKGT
Sodium-dependent serotonin transporter, sequence (P31652 whole entry): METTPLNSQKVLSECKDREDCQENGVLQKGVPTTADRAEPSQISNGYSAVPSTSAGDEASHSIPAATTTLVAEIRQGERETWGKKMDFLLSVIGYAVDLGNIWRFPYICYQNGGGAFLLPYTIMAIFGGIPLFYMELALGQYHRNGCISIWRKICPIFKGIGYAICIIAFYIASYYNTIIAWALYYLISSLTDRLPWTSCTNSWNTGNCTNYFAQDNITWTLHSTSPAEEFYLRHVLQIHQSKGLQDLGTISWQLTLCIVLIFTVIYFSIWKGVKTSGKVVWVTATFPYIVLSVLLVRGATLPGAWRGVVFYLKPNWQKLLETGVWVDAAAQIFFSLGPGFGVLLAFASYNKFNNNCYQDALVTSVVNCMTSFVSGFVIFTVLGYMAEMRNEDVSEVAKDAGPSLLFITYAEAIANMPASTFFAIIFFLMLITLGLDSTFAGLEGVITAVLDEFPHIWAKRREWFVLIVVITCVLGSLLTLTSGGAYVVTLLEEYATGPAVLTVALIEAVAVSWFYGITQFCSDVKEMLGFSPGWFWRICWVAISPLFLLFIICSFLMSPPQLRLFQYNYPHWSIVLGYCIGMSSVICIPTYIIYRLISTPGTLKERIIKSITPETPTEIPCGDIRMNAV

Structure (SMILES)	pKi [1]	AUC(0-t) at 6 h [2] [ng·h/mL]	Kb [4] [nM]	other results
CCS(=O)(=O)N1CCC(N(C(=O)Nc2ccc(F)c(C(F)(F)F)c2)c2ccc(-c3cccc(C#N)c3)cc2)CC1	6.78			
CC(C)C(=O)N1CCC(N(C(=O)Nc2ccc(F)c(C(F)(F)F)c2)c2ccc(-c3cccc(C#N)c3)cc2)CC1	6.43			
N#Cc1cccc(-c2ccc(N(CCN3CC[C@@H](O)C3)C(=O)Nc3ccc(F)c(Cl)c3)cc2)c1	8.15	1080		
CN(C)CCN(C(=O)Nc1ccc(F)c(Cl)c1)c1ccc(-c2cccc(C#N)c2)cc1	8.48	1950	3.1	pKi [3]: 5.97
CN(C)CCN(C(=O)Nc1cc(Cl)cc(Cl)c1)c1ccc(-c2cccc(C#N)c2)cc1	7.72			
CN(C)CCN(C(=O)Nc1ccc(C(F)(F)F)c(F)c1)c1ccc(-c2cccc(C#N)c2)cc1	8.22	4800		
N#Cc1cccc(-c2ccc(N(CCN3CCCC3)C(=O)Nc3ccc(C(F)(F)F)c(F)c3)cc2)c1		967		
CNCCN(C(=O)Nc1ccc(F)c(Cl)c1)c1ccc(-c2cccc(C#N)c2)cc1	8.22		6.2	
CN1CCN(CCN(C(=O)Nc2ccc(C(F)(F)F)c(F)c2)c2ccc(-c3cccc(C#N)c3)cc2)CC1	8.09	542		pKi [3]: < 6.00
N#Cc1cccc(-c2ccc(N(CCN3CC[C@@H](O)C3)C(=O)Nc3ccc(C(F)(F)F)c(F)c3)cc2)c1	8.05	5470	2	Food intake (Rattus norvegicus [5]): 13.2%; Food intake (Mus musculus [6]): 14%; Body weight gain (Rattus norvegicus [7]): 1.2 g; Food intake (Mus musculus [8]): 16%; Food intake (Rattus norvegicus [9]): 16.9%; Body weight gain (Rattus norvegicus [10]): 2.2 g; Food intake (Mus musculus [11]): 17%
N#Cc1cccc(-c2ccc(N(CCN3CC[C@@H](O)C3)C(=O)Nc3ccc(F)c(C(F)(F)F)c3)cc2)c1	8.74	2790	8	
N#Cc1cccc(-c2ccc(N(CCN3CC[C@H](O)C3)C(=O)Nc3ccc(C(F)(F)F)c(F)c3)cc2)c1	8.14	1450		
N#Cc1cccc(-c2ccc(N(CCN3CC[C@@H](O)C3)C(=O)Nc3cc(Cl)cc(Cl)c3)cc2)c1	7.96	1850		
